Reference: ChEMBL document CHEMBL3885881, “DrugMatrix”

Species: Rattus norvegicus
Assay: DrugMatrix - Regimen: Daily Repeat
Format: toxicity, organism-based, Sprague-Dawley
Set-up: regimen Daily Repeat, gender Male, age 6-8 weeks
Settings: in vivo, po, route oral GAVAGE, vehicle 100 % WATER; for ABSOLUTE BASOPHIL / ABSOLUTE EOSINOPHIL / ABSOLUTE LYMPHOCYTE / ABSOLUTE MONOCYTE / ABSOLUTE SEGMENTED NEUTROPHIL / BASOPHIL / EOSINOPHIL / ERYTHROCYTE COUNT / HEMATOCRIT / HEMOGLOBIN / LEUKOCYTE COUNT / LYMPHOCYTE / MEAN CORPUSCULAR HEMOGLOBIN / MEAN CORPUSCULAR HEMOGLOBIN CONCENTRATION / MEAN CORPUSCULAR VOLUME / MONOCYTE / NEUTROPHIL / NUCLEATED RED BLOOD CELLS / PLATELET COUNT: tissue Blood; for ALANINE AMINOTRANSFERASE / ALBUMIN / ALKALINE PHOSPHATASE / ASPARTATE AMINOTRANSFERASE / BLOOD UREA NITROGEN / CARBON DIOXIDE / CHLORIDE / CHOLESTEROL / CREATINE PHOSPHOKINASE / CREATININE / GLUCOSE / LACTATE DEHYDROGENASE / LIPASE / PHOSPHORUS / POTASSIUM / SODIUM / TOTAL BILIRUBIN / TOTAL PROTEIN / URIC ACID: tissue Plasma
[1] = 0 mg/kg, 72 h, dose level Control, time 3 day
[2] = 0 mg/kg, 120 h, dose level Control, time 5 day
[3] = 2 mg/kg, 72 h, dose level Low, time 3 day

## C[C@]12C=CC(=O)C=C1CC[C@@H]1[C@@H]2[C@@H](O)C[C@@]2(C)[C@H]1CC[C@]2(O)C(=O)CO [PREDNISOLONE]
[1]
  ABSOLUTE BASOPHIL: 0 CELLS/uL
  ABSOLUTE EOSINOPHIL: 24 CELLS/uL
  ABSOLUTE LYMPHOCYTE: 13105 CELLS/uL
  ABSOLUTE MONOCYTE: 76 CELLS/uL
  ABSOLUTE SEGMENTED NEUTROPHIL: 2145 CELLS/uL
  BASOPHIL: 0%
  EOSINOPHIL: 0.17%
  ERYTHROCYTE COUNT: 5.81 x10E6/uL
  HEMATOCRIT: 35.6%
  HEMOGLOBIN: 13.72 G/DL
  LEUKOCYTE COUNT: 15.35 x10E3/uL
  LYMPHOCYTE: 85.5%
  MEAN CORPUSCULAR HEMOGLOBIN: 23.62 pg
  MEAN CORPUSCULAR HEMOGLOBIN CONCENTRATION: 38.55 G/DL
  MEAN CORPUSCULAR VOLUME: 61.23 fL
  MONOCYTE: 0.5%
  NEUTROPHIL: 13.83%
  NUCLEATED RED BLOOD CELLS: 0 /100WBC
  PLATELET COUNT: 1189.83 x10E3/uL
  ALANINE AMINOTRANSFERASE: 48.67 u/L
  ALBUMIN: 4.27 G/DL
  ALKALINE PHOSPHATASE: 335 u/L
  ASPARTATE AMINOTRANSFERASE: 86.5 u/L
  BLOOD UREA NITROGEN: 14.33 mg/dL
  CARBON DIOXIDE: 29.17 mmol/L
  CHLORIDE: 99.83 MEQ/L
  CHOLESTEROL: 71.83 mg/dL
  CREATINE PHOSPHOKINASE: 506.83 u/L
  CREATININE: 0.18 mg/dL
  GLUCOSE: 162.17 mg/dL
  LACTATE DEHYDROGENASE: 264.5 u/L
  LIPASE: 9.67 u/L
  PHOSPHORUS: 11.92 mg/dL
  POTASSIUM: 6.55 MEQ/L
  SODIUM: 141.53 MEQ/L
  TOTAL BILIRUBIN: 0.18 mg/dL
  TOTAL PROTEIN: 5.87 G/DL
  URIC ACID: 1.67 mg/dL
[2]
  ABSOLUTE BASOPHIL: 0 CELLS/uL
  ABSOLUTE EOSINOPHIL: 25.33 CELLS/uL
  ABSOLUTE LYMPHOCYTE: 15680 CELLS/uL
  ABSOLUTE MONOCYTE: 92.33 CELLS/uL
  ABSOLUTE SEGMENTED NEUTROPHIL: 2102.33 CELLS/uL
  BASOPHIL: 0%
  EOSINOPHIL: 0.17%
  ERYTHROCYTE COUNT: 6 x10E6/uL
  HEMATOCRIT: 35.55%
  HEMOGLOBIN: 14.12 G/DL
  LEUKOCYTE COUNT: 17.9 x10E3/uL
  LYMPHOCYTE: 87.33%
  MEAN CORPUSCULAR HEMOGLOBIN: 23.65 pg
  MEAN CORPUSCULAR HEMOGLOBIN CONCENTRATION: 39.77 G/DL
  MEAN CORPUSCULAR VOLUME: 59.52 fL
  MONOCYTE: 0.5%
  NEUTROPHIL: 12%
  NUCLEATED RED BLOOD CELLS: 0.17 /100WBC
  PLATELET COUNT: 1325.67 x10E3/uL
  ALANINE AMINOTRANSFERASE: 56.17 u/L
  ALBUMIN: 4.23 G/DL
  ALKALINE PHOSPHATASE: 371.5 u/L
  ASPARTATE AMINOTRANSFERASE: 91 u/L
  BLOOD UREA NITROGEN: 15.33 mg/dL
  CARBON DIOXIDE: 27.67 mmol/L
  CHLORIDE: 99.5 MEQ/L
  CHOLESTEROL: 66.5 mg/dL
  CREATINE PHOSPHOKINASE: 518.5 u/L
  CREATININE: 0.18 mg/dL
  GLUCOSE: 143.33 mg/dL
  LACTATE DEHYDROGENASE: 238.83 u/L
  LIPASE: 9.33 u/L
  PHOSPHORUS: 10.68 mg/dL
  POTASSIUM: 6.5 MEQ/L
  SODIUM: 141.88 MEQ/L
  TOTAL BILIRUBIN: 0.18 mg/dL
  TOTAL PROTEIN: 6 G/DL
  URIC ACID: 1.63 mg/dL
[3]
  ABSOLUTE BASOPHIL: 0 CELLS/uL
  ABSOLUTE EOSINOPHIL: 0 CELLS/uL
  ABSOLUTE LYMPHOCYTE: 13282 CELLS/uL
  ABSOLUTE MONOCYTE: 183.67 CELLS/uL
  ABSOLUTE SEGMENTED NEUTROPHIL: 1434.33 CELLS/uL
  BASOPHIL: 0%
  EOSINOPHIL: 0%
  ERYTHROCYTE COUNT: 5.89 x10E6/uL
  HEMATOCRIT: 36.9%
  HEMOGLOBIN: 14.23 G/DL
  LEUKOCYTE COUNT: 14.9 x10E3/uL
  LYMPHOCYTE: 88.67%
  MEAN CORPUSCULAR HEMOGLOBIN: 24.17 pg
  MEAN CORPUSCULAR HEMOGLOBIN CONCENTRATION: 38.57 G/DL
  MEAN CORPUSCULAR VOLUME: 62.63 fL
  MONOCYTE: 1%
  NEUTROPHIL: 10.33%
  NUCLEATED RED BLOOD CELLS: 0 /100WBC
  PLATELET COUNT: 1283.33 x10E3/uL
  ALANINE AMINOTRANSFERASE: 48.33 u/L
  ALBUMIN: 4.37 G/DL
  ALKALINE PHOSPHATASE: 335.33 u/L
  ASPARTATE AMINOTRANSFERASE: 82.67 u/L
  BLOOD UREA NITROGEN: 15.67 mg/dL
  CARBON DIOXIDE: 25.33 mmol/L
  CHLORIDE: 101.33 MEQ/L
  CHOLESTEROL: 64.67 mg/dL
  CREATINE PHOSPHOKINASE: 495.33 u/L
  CREATININE: 0.15 mg/dL
  GLUCOSE: 167.67 mg/dL
  LACTATE DEHYDROGENASE: 139 u/L
  LIPASE: 9.67 u/L
  PHOSPHORUS: 12.63 mg/dL
  POTASSIUM: 5.96 MEQ/L
  SODIUM: 144.8 MEQ/L
  TOTAL BILIRUBIN: 0.17 mg/dL
  TOTAL PROTEIN: 6.1 G/DL
  URIC ACID: 1.97 mg/dL
